We go through 18 compounds from patent publication US9809574B2, “Isoindoline or isoquinoline compounds, a process for their preparation and pharmaceutical compositions containing them” (LES LABORATOIRES SERVIER, priority 2013, dated 2017).

The test system of assay [1] is RS4; 11 leukaemia cell line. The experiment in a line: In vitro cytotoxicity, Microculture Tetrazolium Assay (MTT). In kind it is cell-based. The settings on record: Homo sapiens, 11 cells exposed for 48 hours. How it is done: The cytotoxicity studies were carried out on the RS4; 11 leukaemia cell line and on H146 small Cell Lung Carcinoma cell line. The cells are distributed onto microplates and exposed to the test compounds for 48 hours. The cell viability is then quantified by a colorimetric assay, the Microculture Tetrazolium Assay (Cancer Res., 1987, 47, 939-942).

Assay [2] addresses Bcl-2 protein (histag-Bcl-2, UniProtKB P10415) (Homo sapiens (Human), UniProt P10415). Briefly: Inhibition of Bcl-2 by the fluorescence polarisation technique. In kind it is binding. The note with it: fluorescence polarisation test; incubation for 2 hours; read-out: IC50 (nM) Bcl-2 FP. From the text:
For partial inhibitors, the percentage fluorescence polarisation inhibition for a given concentration of the test compound is indicated.
Background: In fluorescence polarisation assays a small probe gives low polarisation when free and higher when bound to something large.

Where a name gives a salt, the structure may show the parent alone.

Chain of Bcl-2 protein (P10415 whole entry): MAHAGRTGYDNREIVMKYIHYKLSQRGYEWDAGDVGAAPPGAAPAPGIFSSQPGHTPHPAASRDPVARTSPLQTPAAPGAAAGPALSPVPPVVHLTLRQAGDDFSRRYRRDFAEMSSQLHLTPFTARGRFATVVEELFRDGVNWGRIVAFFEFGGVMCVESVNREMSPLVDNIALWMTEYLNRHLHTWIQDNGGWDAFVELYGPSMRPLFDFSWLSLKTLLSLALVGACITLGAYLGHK

As to `C[C@@H]1Cc2ccccc2CN1C(=O)c1cc2c(cc1-c1cc(C(=O)N(C)c3ccc(O)cc3)c3n1CCCC3)CN(C(=O)Nc1ccccc1)C2` [Example 60, 5-{1-[(4-Hydroxyphenyl)(methyl)carbamoyl]-5,6,7,8-tetrahydroindolizin-3-yl}-6-[(3R)-3-methyl-1,2,3,4-tetrahydroisoquinoline-2-carbonyl]-N-phenyl-2,3-dihydro-1H-isoindole-2-carboxamide], the IC50 (as a rule, the midpoint of a concentration-inhibition curve) in assay [1] is 46 nM; in assay [2] it was 5.9 nM.

Take `C[C@@H]1Cc2ccccc2CN1C(=O)c1cc2c(cc1-c1cc(C(=O)N(C)c3ccc(O)cc3)c3n1CCCC3)CN(C(=O)NCc1ccccc1)C2` [Example 61, N-Benzyl-5-{1-[(4-hydroxyphenyl)(methyl)carbamoyl]-5,6,7,8-tetrahydroindolizin-3-yl}-6-[(3R)-3-methyl-1,2,3,4-tetrahydroisoquinoline-2-carbonyl]-2,3-dihydro-1H-isoindole-2-carboxamide]: the IC50 in assay [1] turned out to be 85 nM; in assay [2], 4.4 nM.

Turning to `C[C@@H]1Cc2ccccc2CN1C(=O)c1cc2c(cc1-c1cc(C(=O)N(C)c3ccc(O)cc3)c3n1CCCC3)CN(C(=O)OCc1ccccc1)C2` [Example 62, Benzyl 5-{1-[(4-hydroxyphenyl)(methyl)carbamoyl]-5,6,7,8-tetrahydroindolizin-3-yl}-6-[(3R)-3-methyl-1,2,3,4-tetrahydroisoquinoline-2-carbonyl]-2,3-dihydro-1H-isoindole-2-carboxylate], the half-maximal inhibitory concentration (IC50) in assay [1] is 113 nM; in assay [2], 20 nM.

With `Cc1c(C(=O)N(C)c2ccc(O)cc2)cc(-c2cc3c(cc2C(=O)N2Cc4ccccc4C[C@H]2C)CN(C(=O)Oc2ccccc2)C3)n1C` [Example 63, Phenyl 5-{4-[(4-hydroxyphenyl)(methyl)carbamoyl]-1,5-dimethyl-1H-pyrrol-2-yl}-6-[(3R)-3-methyl-1,2,3,4-tetrahydroisoquinoline-2-carbonyl]-2,3-dihydro-1H-isoindole-2-carboxylate], the IC50 in assay [1] was found to be 12 nM; in assay [2] it was 4.4 nM.

In the case of `C[C@@H]1Cc2ccccc2CN1C(=O)c1cc2c(cc1-c1cc(C(=O)N(C)c3ccc(O)cc3)c3n1CCCC3)CN(C(=O)OCc1cnc3[nH]ccc3c1)C2` [Example 64, 1H-pyrrolo[2,3-b]pyridin-5-ylmethyl 5-{1-[(4-hydroxyphenyl)(methyl)carbamoyl]-5,6,7,8-tetrahydroindolizin-3-yl}-6-[(3R)-3-methyl-1,2,3,4-tetrahydroisoquinoline-2-carbonyl]-2,3-dihydro-1H-isoindole-2-carboxylate], the IC50 in assay [1] is 204 nM; in assay [2], 27 nM.

As to `C[C@@H]1Cc2ccccc2CN1C(=O)c1cc2c(cc1-c1cc(C(=O)N(C)c3ccc(O)cc3)c3n1CCCC3)CN(C(=O)Nc1ccc(N3CCN(C)CC3)cc1)C2` [Example 65, 5-{1-[(4-Hydroxyphenyl)(methyl)carbamoyl]-5,6,7,8-tetrahydroindolizin-3-yl}-6-[(3R)-3-methyl-1,2,3,4-tetrahydroisoquinoline-2-carbonyl]-N-[4-(4-methylpiperazin-1-yl)phenyl]-2,3-dihydro-1H-isoindole-2-carboxamide], the figures for the IC50 in assay [1] and in assay [2] were 51 nM and 6.5 nM, respectively.

For the compound `C[C@@H]1Cc2ccccc2CN1C(=O)c1cc2c(cc1-c1cc(C(=O)N(C)c3ccc(O)cc3)c3n1CCCC3)CN(C(=O)N1CCC(c3ccccc3)C1)C2` (stereo partly drawn) [Example 66, N-(4-Hydroxyphenyl)-N-methyl-3-{6-[(3R)-3-methyl-1,2,3,4-tetrahydroisoquinoline-2-carbonyl]-2-(3-phenylpyrrolidine-1-carbonyl)-2,3-dihydro-1H-isoindol-5-yl}-5,6,7,8-tetrahydroindolizine-1-carboxamide], the results for the IC50 in assay [1] and in assay [2] were 80 nM and 16 nM, respectively.

As to `C[C@@H]1Cc2ccccc2CN1C(=O)c1cc2c(cc1-c1cc(C(=O)N(C)c3ccc(O)cc3)c3n1CCCC3)CCN(C(=O)N1CCC(c3ccccc3)C1)C2` (stereo partly drawn) [Example 67, N-(4-Hydroxyphenyl)-N-methyl-3-{7-[(3R)-3-methyl-1,2,3,4-tetrahydroisoquinoline-2-carbonyl]-2-(3-phenylpyrrolidine-1-carbonyl)-1,2,3,4-tetrahydroisoquinolin-6-yl}-5,6,7,8-tetrahydroindolizine-1-carboxamide], the IC50 is 51 nM in assay [1] and 9.4 nM in assay [2].

As to `Cc1c(C(=O)N(C)c2ccc(O)cc2)cc(-c2cc3c(cc2C(=O)N2Cc4ccccc4C[C@H]2C)CN(C(=O)Oc2ccccc2)CC3)n1C` [Example 68, Phenyl 6-{4-[(4-hydroxyphenyl)(methyl)carbamoyl]-1,5-dimethyl-1H-pyrrol-2-yl}-7-[(3R)-3-methyl-1,2,3,4-tetrahydroisoquinoline-2-carbonyl]-1,2,3,4-tetrahydroisoquinoline-2-carboxylate], the IC50 is 1.8 nM in assay [1] and 2.9 nM in assay [2].

For `CN(C(=O)c1cc(-c2cc3c(cc2C(=O)N2Cc4ccccc4C[C@H]2CN2CCOCC2)CN(C(=O)Oc2ccccc2)CC3)n2c1CCCC2)c1ccc(O)cc1` [Example 69, Phenyl 6-{1-[(4-hydroxyphenyl)(methyl)carbamoyl]-5,6,7,8-tetrahydroindolizin-3-yl}-7-[(3S)-3-(morpholin-4-ylmethyl)-1,2,3,4-tetrahydroisoquinoline-2-carbonyl]-1,2,3,4-tetrahydroisoquinoline-2-carboxylate hydrochloride], the IC50 in assay [1] was determined as 3.46 nM; in assay [2], 3.1 nM.

In the case of `CN(C(=O)c1cc(-c2cc3c(cc2C(=O)N2Cc4ccccc4C[C@H]2CN2CCOCC2)CN(C(=O)Cc2ccccc2)CC3)n2c1CCCC2)c1ccc(O)cc1` [Example 70, N-(4-Hydroxyphenyl)-N-methyl-3-{7-[(3S)-3-(morpholin-4-ylmethyl)-1,2,3,4-tetrahydroisoquinoline-2-carbonyl]-2-(2-phenylacetyl)-1,2,3,4-tetrahydroisoquinolin-6-yl}-5,6,7,8-tetrahydroindolizine-1-carboxamide], the IC50 in assay [1] is 9.8 nM; in assay [2] it was 5.1 nM.

Take `C[C@@H]1Cc2ccccc2CN1C(=O)c1cc2c(cc1-c1cc(C(=O)N(C)c3ccc(O)cc3)c3n1CCCC3)CCN(C(=O)Nc1ccccc1)C2` [Example 71, 6-{1-[(4-Hydroxyphenyl)(methyl)carbamoyl]-5,6,7,8-tetrahydroindolizin-3-yl}-7-[(3R)-3-methyl-1,2,3,4-tetrahydroisoquinoline-2-carbonyl]-N-phenyl-1,2,3,4-tetrahydroisoquinoline-2-carboxamide]: the figures for the half-maximal inhibitory concentration (IC50) in assay [1] and in assay [2] were 9.9 nM and 3.7 nM, respectively.

In the case of `C[C@@H]1Cc2ccccc2CN1C(=O)c1cc2c(cc1-c1cc(C(=O)N(C)c3ccc(O)cc3)c3n1CCCC3)CN(CCc1ccccc1)C2` [Example 72, N-(4-Hydroxyphenyl)-N-methyl-3-{6-[(3R)-3-methyl-1,2,3,4-tetrahydroisoquinoline-2-carbonyl]-2-(2-phenylethyl)-2,3-dihydro-1H-isoindol-5-yl}-5,6,7,8-tetrahydroindolizine-1-carboxamide], the IC50 in assay [1] turned out to be 229 nM; in assay [2] it was 21 nM.

For the compound `C[C@@H]1Cc2ccccc2CN1C(=O)c1cc2c(cc1-c1cc(C(=O)N(C)c3ccc(O)cc3)c3n1CCCC3)CCN(C(=O)NCc1ccccc1)C2` [Example 73, N-Benzyl-6-{1-[(4-hydroxyphenyl)(methyl)carbamoyl]-5,6,7,8-tetrahydroindolizin-3-yl}-7-[(3R)-3-methyl-1,2,3,4-tetrahydroisoquinoline-2-carbonyl]-1,2,3,4-tetrahydroisoquinoline-2-carboxamide], the IC50 is 36 nM in assay [1] and 4.3 nM in assay [2].

Consider `C[C@@H]1Cc2ccccc2CN1C(=O)c1cc2c(cc1-c1cc(C(=O)N(C)c3ccc(O)cc3)c3n1CCCC3)CCN(C(=O)N(C)c1ccccc1)C2` [Example 74, 6-{1-[(4-Hydroxyphenyl)(methyl)carbamoyl]-5,6,7,8-tetrahydroindolizin-3-yl}-N-methyl-7-[(3R)-3-methyl-1,2,3,4-tetrahydroisoquinoline-2-carbonyl]-N-phenyl-1,2,3,4-tetrahydroisoquinoline-2-carboxamide], for which the IC50 amounted to 94 nM in assay [1] and 6.1 nM in assay [2].

Take `Cc1c(C(=O)N(C)c2ccc(O)cc2)cc(-c2cc3c(cc2C(=O)N2Cc4ccccc4C[C@H]2C)CN(C(=O)Cc2ccccc2)CC3)n1C` [Example 75, N-(4-Hydroxyphenyl)-N,1,2-trimethyl-5-{7-[(3R)-3-methyl-1,2,3,4-tetrahydroisoquinoline-2-carbonyl]-2-(2-phenylacetyl)-1,2,3,4-tetrahydroisoquinolin-6-yl}-1H-pyrrole-3-carboxamide]: the IC50 in assay [1] came to 6.2 nM; in assay [2] it was 4 nM.

For the compound `C[C@@H]1Cc2ccccc2CN1C(=O)c1cc2c(cc1-c1cc(C(=O)N(C)c3ccc(O)cc3)c3n1CCCC3)CN(C(=O)NC(C)(C)C)C2` [Example 76, N-tert-Butyl-5-{1-[(4-hydroxyphenyl)(methyl)carbamoyl]-5,6,7,8-tetrahydroindolizin-3-yl}-6-[(3R)-3-methyl-1,2,3,4-tetrahydroisoquinoline-2-carbonyl]-2,3-dihydro-1H-isoindole-2-carboxamide], the figures for the IC50 in assay [1] and in assay [2] were > 150 nM and 24 nM, respectively.

For `CN(C(=O)c1cc(-c2cc3c(cc2C(=O)N2Cc4ccccc4C[C@H]2CN2CCOCC2)CN(C(=O)Nc2ccccc2)CC3)n2c1CCCC2)c1ccc(O)cc1` [Example 77, 6-{1-[(4-Hydroxyphenyl)(methyl)carbamoyl]-5,6,7,8-tetrahydroindolizin-3-yl}-7-[(3S)-3-(morpholin-4-ylmethyl)-1,2,3,4-tetrahydroisoquinoline-2-carbonyl]-N-phenyl-1,2,3,4-tetrahydroisoquinoline-2-carboxamide], the IC50 in assay [1] was 84 nM; in assay [2], 4 nM.
